Converted amounts (≈) assume the structure as drawn. Like-named read-outs stand apart in the source and are kept apart here. A value given as a limit tells only on which side of the number the result lay.

One may read the MIC as the least concentration at which growth counts as inhibited.

Common to all, as to assay: Antibacterial activity (MIC), standard method of the Japan Society of Chemotherapy
Holding throughout (assay type): cell-based

One experiment has as its system E. coli, NIHJ. As to the method: (§1) The antibacterial activity of each compound of the present invention was measured in accordance with the standard method specified by the Japan Society of Chemotherapy, with the results shown in the following table as MIC values (μg/ml).
A further experiment deals with Pr. mirabilis, IFO-3849. As to the method:
as §1

A further experiment has as its system Pr. vulgaris, 08601. As to the method: as §1
The next experiment relates to Ps. aeruginasa, 32121. As to the method: as §1
A further experiment has as its system Ps. aeruginosa, 32104. As to the method: as §1
For another experiment, the system named is S. aureus, 209P. As to the method:
as §1

In the next experiment the test system is S. aureus, 870307. As to the method: as §1
A further experiment has as its system S. epidermidis, 56500. As to the method: as §1
The subject of another experiment is S. flexneli, 2A 5503. As to the method:
as §1

A further experiment has as its system S. maltophilia, IID-1275. As to the method: as §1
In another experiment the test system is S. pneumoniae, J24. As to the method:
as §1

The subject of another experiment is Ser. marcescens, 10100. As to the method: as §1
The test system of experiment [1] is Str. faecalis, ATCC-19433. As to the method:
as §1

The subject of another experiment is Str. pyogenes, G-36. As to the method: as §1
[2] abbreviates: Escherichia coli, read-out: MIC.
[3] abbreviates: Proteus mirabilis, IFO3849, read-out: MIC.
Where [4] appears, read: Proteus vulgaris, read-out: MIC.
[5] abbreviates: Pseudomonas aeruginosa, read-out: MIC.
[6] abbreviates: Staphylococcus aureus, read-out: MIC.
Setting [7] is: Staphylococcus epidermidis, read-out: MIC.
The mark [8] stands for this setting: Stenotrophomonas maltophilia, IID1275, read-out: MIC.
Setting [9] is: Streptococcus pneumoniae, read-out: MIC.
Setting [10] is: Serratia marcescens, read-out: MIC.
The mark [11] stands for this setting: Enterococcus faecalis, ATCC19433, read-out: MIC.
Setting [12] is: Streptococcus pyogenes, G36, read-out: MIC.

As for `COc1c(N2CCC(C3(N)CC(F)(F)C3)C2)c(F)cc2c(=O)c(C(=O)O)cn([C@@H]3C[C@@H]3F)c12` (stereo partly drawn) [Inventive Example 3, 7-[3-(3-Amino-1,1-difluorocyclobutan-3-yl)pyrrolidin-1-yl]-6-fluoro-1-[2-(S)-fluoro-1-(R)-cyclopropyl]-8-methoxy-1,4-dihydro-4-oxoquinoline-3-carboxylic acid], the minimum inhibitory concentration (MIC) with E. coli, NIHJ (setting [2]) was 0.013 µg/mL (≈ 0.0277 µM); in the experiment on Pr. mirabilis, IFO-3849 (setting [3]) it was 0.1 µg/mL (≈ 0.213 µM); in the experiment with Pr. vulgaris, 08601 (setting [4]), 0.025 µg/mL (≈ 0.0533 µM); in the experiment with Ps. aeruginasa, 32121 (read-out: MIC) it was 0.39 µg/mL (≈ 0.831 µM); with Ps. aeruginosa, 32104 (setting [5]), 0.78 µg/mL (≈ 1.66 µM); with S. aureus, 209P (setting [6]) it was no more than 0.003 µg/mL. The MIC was determined as 0.025 µg/mL (≈ 0.0533 µM) in the experiment on S. aureus, 870307 (setting [6]); 0.013 µg/mL (≈ 0.0277 µM) in the experiment with S. epidermidis, 56500 (setting [7]); 0.025 µg/mL (≈ 0.0533 µM) with S. flexneli, 2A 5503; 0.2 µg/mL (≈ 0.426 µM) in the experiment with S. maltophilia, IID-1275 (setting [8]); 0.006 µg/mL (≈ 0.0128 µM) in the experiment on S. pneumoniae, J24 (setting [9]); 0.39 µg/mL (≈ 0.831 µM) with Ser. marcescens, 10100 (setting [10]). For the same molecule, the MIC in [1] (setting [11]) worked out at 0.025 µg/mL (≈ 0.0533 µM); in the experiment on Str. pyogenes, G-36 (setting [12]) it was 0.006 µg/mL (≈ 0.0128 µM).
For `Nc1c(F)c(N2CCC(C3(N)CC(F)C3)C2)c(F)c2c1c(=O)c(C(=O)O)cn2[C@@H]1C[C@@H]1F` (stereo partly drawn) [Inventive Example 7, 5-Amino-7-[3-(3-amino-1-fluoro-cyclobutan-3-yl)pyrrolidin-1-yl]-6,8-difluoro-1-[2-(S)-fluoro-1-(R)-cyclopropyl]-1,4-dihydro-4-oxoquinoline-3-carboxylic acid], the MIC is no more than 0.003 µg/mL in the experiment on E. coli, NIHJ (setting [2]); 0.025 µg/mL (≈ 0.055 µM) with Pr. mirabilis, IFO-3849 (setting [3]); 0.025 µg/mL (≈ 0.055 µM) with Pr. vulgaris, 08601 (setting [4]); 0.05 µg/mL (≈ 0.11 µM) in the experiment on Ps. aeruginasa, 32121 (read-out: MIC); 0.1 µg/mL (≈ 0.22 µM) with Ps. aeruginosa, 32104 (setting [5]); no more than 0.003 µg/mL in the experiment with S. aureus, 209P (setting [6]). Also, the minimal inhibitory concentration (MIC) with S. aureus, 870307 (setting [6]) was 0.006 µg/mL (≈ 0.0132 µM); in the experiment with S. epidermidis, 56500 (setting [7]), no more than 0.003 µg/mL; against S. flexneli, 2A 5503, no more than 0.003 µg/mL; in the experiment on S. maltophilia, IID-1275 (setting [8]) it was 0.05 µg/mL (≈ 0.11 µM); in the experiment on S. pneumoniae, J24 (setting [9]), no more than 0.003 µg/mL; in the experiment on Ser. marcescens, 10100 (setting [10]) it was 0.05 µg/mL (≈ 0.11 µM). For the same molecule, the minimum inhibitory concentration (MIC) in experiment [1] (setting [11]) was 0.025 µg/mL (≈ 0.055 µM); in the experiment with Str. pyogenes, G-36 (setting [12]) it was no more than 0.003 µg/mL.
In the case of `Cc1c(N2CCC(C3(N)CC(F)(F)C3)C2)c(F)c(N)c2c(=O)c(C(=O)O)cn([C@@H]3C[C@@H]3F)c12` (stereo partly drawn) [Inventive Example 5, 5-Amino-7-[3-(3-amino-1,1-difluorocyclobutan-3-yl)pyrrolidin-1-yl]-6-fluoro-1-[2-(S)-fluoro-1-(R)-cyclopropyl]-8-methyl-1,4-dihydro-4-oxoguinoline-3-carboxylic acid], the minimum inhibitory concentration (MIC) against E. coli, NIHJ is 0.006 µg/mL (≈ 0.0128 µM); with Pr. mirabilis, IFO-3849, 0.05 µg/mL (≈ 0.107 µM); in the experiment on Pr. vulgaris, 08601, 0.05 µg/mL (≈ 0.107 µM); against Ps. aeruginasa, 32121 it was 0.20 µg/mL (≈ 0.427 µM); against Ps. aeruginosa, 32104 it was 0.39 µg/mL (≈ 0.833 µM); in the experiment with S. aureus, 209P, “≦0.003 μg/ml”. Besides, the minimum inhibitory concentration (MIC) against S. aureus, 870307 is 0.025 µg/mL (≈ 0.0534 µM); with S. epidermidis, 56500 it was “≦0.003 μg/ml”; against S. flexneli, 2A 5503 (S. flexneli, 2A 5503) it was 0.006 µg/mL (≈ 0.0128 µM); with S. maltophilia, IID-1275, 0.10 µg/mL (≈ 0.213 µM); with S. pneumoniae, J24 it was “≦0.003 μg/ml”; with Ser. marcescens, 10100, 0.20 µg/mL (≈ 0.427 µM). The MIC worked out at 0.025 µg/mL (≈ 0.0534 µM) in experiment [1] and 0.006 µg/mL (≈ 0.0128 µM) in the experiment with Str. pyogenes, G-36.
Consider `Cc1c(N2CCC(C3(N)CC(F)C3)C2)c(F)c(N)c2c(=O)c(C(=O)O)cn([C@@H]3C[C@@H]3F)c12` (stereo partly drawn) [Inventive Example 1, 5-Amino-7-[3-(3-amino-1-fluorocyclobutan-3-yl)pyrrolidin-1-yl]-6-fluoro-1-[2-(S)-fluoro-1-(R)-cyclopropyl]-8-methyl-1,4-dihydro-4-oxoguinoline-3-carboxylic acid], for which the minimum inhibitory concentration (MIC) entry with E. coli, NIHJ was “≦0.003 μg/ml”; in the experiment with Pr. mirabilis, IFO-3849, 0.025 µg/mL (≈ 0.0555 µM); in the experiment with Pr. vulgaris, 08601 it was 0.013 µg/mL (≈ 0.0289 µM); with Ps. aeruginasa, 32121 it was 0.05 µg/mL (≈ 0.111 µM); against Ps. aeruginosa, 32104, 0.20 µg/mL (≈ 0.444 µM); against S. aureus, 209P, “≦0.003 μg/ml”. Also, the minimum inhibitory concentration (MIC) in the experiment on S. aureus, 870307 was 0.013 µg/mL (≈ 0.0289 µM); in the experiment on S. epidermidis, 56500 it was “≦0.003 μg/ml”; against S. flexneli, 2A 5503 (S. flexneli, 2A 5503), “≦0.003 μg/ml”; in the experiment on S. maltophilia, IID-1275, 0.05 µg/mL (≈ 0.111 µM); in the experiment with S. pneumoniae, J24, “≦0.003 μg/ml”; in the experiment with Ser. marcescens, 10100 it was 0.10 µg/mL (≈ 0.222 µM). The minimal inhibitory concentration (MIC) was 0.025 µg/mL (≈ 0.0555 µM) in experiment [1] and “≦0.003 μg/ml” against Str. pyogenes, G-36.
Consider `COc1c(N2CCC(C3(N)CC(F)C3)C2)c(F)cc2c(=O)c(C(=O)O)cn([C@@H]3C[C@@H]3F)c12` (stereo partly drawn) [Inventive Example 6, 7-[3-(3-Amino-1-fluoro-cyclobutan-3-yl)-pyrrolidin-1-yl]-6-fluoro-1-[2-(S)-fluoro-1-(R)-cyclopropyl]-8-methoxy-1,4-dihydro-4-oxoquinoline-3-carboxylic acid], for which the MIC is no more than 0.003 µg/mL with E. coli, NIHJ (setting [2]); 0.05 µg/mL (≈ 0.111 µM) with Pr. mirabilis, IFO-3849 (setting [3]); 0.025 µg/mL (≈ 0.0554 µM) in the experiment with Pr. vulgaris, 08601 (setting [4]); 0.2 µg/mL (≈ 0.443 µM) in the experiment on Ps. aeruginasa, 32121 (read-out: MIC); 0.39 µg/mL (≈ 0.864 µM) in the experiment with Ps. aeruginosa, 32104 (setting [5]); no more than 0.003 µg/mL with S. aureus, 209P (setting [6]). Also, the minimum inhibitory concentration (MIC) in the experiment with S. aureus, 870307 (setting [6]) is 0.025 µg/mL (≈ 0.0554 µM); in the experiment on S. epidermidis, 56500 (setting [7]), 0.006 µg/mL (≈ 0.0133 µM); in the experiment with S. flexneli, 2A 5503 it was 0.013 µg/mL (≈ 0.0288 µM); in the experiment on S. maltophilia, IID-1275 (setting [8]), 0.2 µg/mL (≈ 0.443 µM); in the experiment with S. pneumoniae, J24 (setting [9]), no more than 0.003 µg/mL; in the experiment with Ser. marcescens, 10100 (setting [10]), 0.1 µg/mL (≈ 0.222 µM). The minimum inhibitory concentration (MIC) was 0.025 µg/mL (≈ 0.0554 µM) in experiment [1] (setting [11]) and 0.006 µg/mL (≈ 0.0133 µM) in the experiment on Str. pyogenes, G-36 (setting [12]).

The values are drawn from patent US6448266B1, “Substituted cyclobutylamine derivatives” (Daiichi Pharmaceutical Co., Ltd., priority 1997, dated 2002).
